Structures can show the parent of a compound that is named as a salt.
System: Caspase-3/7 activity in HepG2 cells
Experiment: Caspase-3/7 activity test
Format: cell-based, human
Details: HepG2, 100 μM, one day; relative to Staurosporine maximum (100%) and no test reagent (0%)
Description: Human liver cancer-derived cell line HepG2 (ATCC No. HB-8065) was passaged using Dulbecco's Modified Eagle medium (DMEM; Invitrogen) containing 10% fetal bovine serum (FBS; TRACE SCIENTIFIC LTD.), 1 mmol/L sodium pyruvate (Invitrogen), 2 mmol/L L-glutamine (Invitrogen), 50 IU/mL penicillin (Invitrogen) and 50 μg/mL streptomycin (Invitrogen) at 5% CO2, 37° C. The test reagent was prepared with DMSO to 10 mM, and further diluted with DMEM medium containing 0.5% FBS, 1 mmol/L sodium pyruvate, 2 mmol/L L-glutamine, 50 IU/mL penicillin and 50 μg/mL streptomycin to a final concentration of DMSO of 0.1%. HepG2 (2×10^4 cells/well) was cultured on a 96 well white plate (Costar) with the test reagent at 5% CO2, 37° C. After culture for one day, the intracellular ATP content was measured using ATPLite™ (PerkinElmer Life Sciences). The results are shown in Table 4 (n23, average value±SD) as a relative value (%) to control (without addition of drug).
The Caspase-3/7 activity in the cells cultured for one day by a method similar to that in Experimental Example 3 was measured using Caspase-Glo 3/7 Assay (Promega). The results are shown in Table 4 (n≧3, average value SD) as relative activity (%) of each reagent based on the maximum value of Caspase-3/7 activity when exposed to Staurosporine (100%), and the activity without addition of a test reagent (0%).

SMILES | Caspase-3/7 activity (%, 100 μM)
CNCc1cn(S(=O)(=O)c2cc(C)ccn2)c(-c2cccnc2F)c1F [Example 2, 1-{4-Fluoro-5-(2-fluoropyridin-3-yl)-1-[(4-methylpyridin-2-yl)sulfonyl]-1H-pyrrol-3-yl}-N-methylmethanamine hydrochloride] | −1.1%
CNCc1cn(S(=O)(=O)c2ccc(F)cn2)c(-c2cccnc2F)c1F [Example 3, 1-{4-Fluoro-5-(2-fluoropyridin-3-yl)-1-[(5-fluoropyridin-2-yl)sulfonyl]-1H-pyrrol-3-yl}-N-methylmethanamine hydrochloride] | −0.5%
CNCc1cn(S(=O)(=O)c2cncc(F)c2)c(-c2cccnc2F)c1F [Example 5, 1-{4-Fluoro-5-(2-fluoropyridin-3-yl)-1-[(5-fluoropyridin-3-yl)sulfonyl]-1H-pyrrol-3-yl}-N-methylmethanamine hydrochloride] | 0.3%

Further lines, results first:

Caspase-3/7 activity (%, 100 μM) | SMILES
−0.6% | CNCc1cn(S(=O)(=O)c2cc(OC)ccn2)c(-c2cccnc2F)c1F [Example 4, 1-{4-Fluoro-5-(2-fluoropyridin-3-yl)-1-[(4-methoxypyridin-2-yl)sulfonyl]-1H-pyrrol-3-yl}-N-methylmethanamine hydrochloride]
2.4% | CNCc1cn(S(=O)(=O)c2ccc(C)nc2)c(-c2cccnc2F)c1F [Example 8, 1-{4-Fluoro-5-(2-fluoropyridin-3-yl)-1-[(6-methylpyridin-3-yl)sulfonyl]-1H-pyrrol-3-yl}-N-methylmethanamine 0.5 fumarate]
0.9% | CNCc1cn(S(=O)(=O)c2ccc(OC)cn2)c(-c2cccnc2F)c1F [Example 10, 1-{4-Fluoro-5-(2-fluoropyridin-3-yl)-1-[(5-methoxypyridin-2-yl)sulfonyl]-1H-pyrrol-3-yl}-N-methylmethanamine hydrochloride]
